# Earlier results, collected in patent publication US20230061908A1 (priority 2020, published 2023).
# Conditions: wide distribution to most tissues
smiles,measurement,value
CCC(CC)COC(=O)[C@H](C)N[P@](=O)(OC[C@H]1O[C@@](C#N)(c2ccc3c(N)ncnn23)[C@H](O)[C@@H]1O)Oc1ccccc1 [Remdesivir],crossing of the BBB (blood-brain barrier),does not cross the BBB
